Assay results: EP2787958B1, “CHELIDONIUM MAJUS EXTRACTS AND THEIR USE IN THE TREATMENT OF SKIN DISORDERS AND PROMOTION OF SKIN REGENERATION” (priority 2011, dated 2013)
Like-named read-outs stand apart in the source and are kept apart here.

Assays:
HDF cells [1] = experiment: Evaluation of cell proliferation (counting of Sirius Red stained cells in photographs); conditions: for No. of cells from photo ± SD: 24 hours
interleukin 1β (IL-1β) = experiment: Inflammatory cytokines in cell supernatant (Mosaic ELISA microarray): IL-1β; assay type: cell-based, Human; conditions: for IL-1β ng/(ml* No. of cells from photo) ± SD: 24 hours
Description: (§1) The inflammatory cytokines, CD40 ligand (CD40L), interferon γ (INF-γ), interleukin 1α (IL-1α), interleukin 1β (IL-1β), interleukin 6 (IL-6), interleukin 8 (IL-8), interleukin 17 (IL-17) and tumour necrosis factor α (TNF-α) were determined qualitatively and quantitatively. Each measurement was performed in duplicate using a Mosaic™ ELISA protein microarray assay system from R&D System in accordance with the supplier's instructions. Furthermore, with the aim of obtaining a correlation model between light signal intensity and cytokine concentration, a calibration curve using 6 concentrations was performed for each of them. Analysis of the data was performed using the dedicated Q-View™ Imager software package from Quansys Biosciences

interleukin 6 (IL-6) = experiment: Inflammatory cytokines in cell supernatant (Mosaic ELISA microarray): IL-6; assay type: cell-based, Human; conditions: for IL-6 ng/(ml* No. of cells from photo) ± SD: 24 hours
Description: as §1

[2] = test system: Human dermal fibroblasts (HDF); experiment: Mitochondrial dehydrogenase activity (WST-1 formazan assay) in HDF cells; conditions: for Revitalizing agent: 24 hours; for activity at 1 µM / activity at 10 µM: Homo sapiens, Fibroblast, read-out: % mitochondrial dehydrogenase activity ± SD
Description: Human dermal fibroblasts were used for assay at the 3rd T75 passage.
Mitochondrial dehydrogenase activity was measured in HDF, HEK and HUVEC cells by means of the formazan assay, using the WST-1 kit from Roche Diagnostic in accordance with the supplier's instructions. Briefly: the reagent was added (10 µl per well), the incubation was carried out for a further 2 hours or 4 hours, and, at the end of this time, the absorbance was read for 1 s at a wavelength of 450 nm in a Perkin Elmer Victor 2 Wallac microplate reader.
The activity percentage (% mitochondrial dehydrogenase activity) is defined as: % mitochondrial dehydrogenase activity = ((absorbance of treated cells - absorbance of blank) / (absorbance of control - absorbance of blank)) x 100.
The tests were performed with observations after 18 hours, seeding 8,000 cells per well, and after 42 hours, seeding 2,000 cells per well. Furthermore, in order to better analyze the dose/response curves for dihydroberberine, canadine and stylopine, curves were collected at 11 concentrations by seeding 2,000 cells per well with 46 hours incubation.
Dose/response curves are plotted at 6 concentrations. The tests were performed with observations after 24 hours, seeding 8,000 cells per well.

[3] = Anti-radical activity (decay of the DPPH radical); assay type: biochemical; conditions: for Anti-radical (skin protective): 24 hours
Description: With regard to assays aimed at evaluating anti-radical activity, a chemical test was used where the decay of the diphenylpicrylhydrazyl (DPPH) radical is assessed in the absence or in the presence of the test substances. Indeed, the DPPH radical is used to test the ability of substances to act as free radical scavengers. DPPH in solution has a purple colour with a maximum absorbance peak at 517 nm which changes to yellow-colourless when this radical extracts a hydrogen atom from a radical scavenger to give rise to the reduced form DPPH-H. The assay has been conducted in quadruplicate in 96 well microplates (SARSTEDT Tissue Culture Plate 96-well flat bottom cell+). 50 µl of an ethanol solution of the test substance at 2X concentration and then 50 µl of a 200 µM solution of DPPH (MW 168,18, Aldrich 2,2-di(4-tert-octylphenyl)-1-picrylhydrazyl, free radical Lot# MKBF7574V Cat N° 257621-100 mg) have been added to each well of the microplate. A positive control consisting of 0.1 mM vitamin C and a negative control consisting of ethanol alone were included in each microplate. After 30 minutes from the addition of DPPH, photographs of the plates were taken (Canon PowerShot A610 5.0 Mpixels) and read spectrophotometrically at 530 nm.
Based on the analysis of the results reported in Table 9, some substances were selected for further characterisation of their anti-radical activity. For the selected substances, dose-activity curves were obtained and the IC50 value were computed using a non-linear regression model with the Hill equation at variable slope. Such substances had been selected due to both their anti-radical potential and the easiness of their isolation/production. The selection of substances was made in view of cosmetics applications. Moreover their activity on human dermal fibroblasts (HDF) is expected to be useful also for the development of dermatological medications. The selected substances are discussed below.

[4] = test system: collagen produced by HDF cells; experiment: Quantity of collagen produced by the cells (elution of Sirius Red)
HDF cells [5] = experiment: Summary of uses and toxic effects deduced from the cell assays (Table 1); assay type: cell-based, Human; conditions: for Anti-fibrotic (prevention of scar formation, also from acne) / Cytoprotective (antioxidant, anti-inflammatory and anti-ageing; useful also in the treatment of acne) / Cytotoxic / Irritant / Wound-healing: 24 hours
Description: Antiradical (skin protective): this is deduced from the free radical scavenger effects.
Revitalizing: this is deduced from the increased mitochondrial dehydrogenase effect.
Cytoprotective, with regard to oxidative damage (antioxidant, anti-inflammatory and anti-ageing): this is deduced from antagonising the stimulation of IL-1β and/or IL-6 induced by 100 µM H2O2 and from the absence of changes in cell morphology similar to the ones due to cell senescence.
Wound healing: this is deduced from the effect of inhibiting the production of IL-1β and by the effect of stimulating cell proliferation under standard growth conditions.
Cytotoxicity: this is deduced from the effect of reducing mitochondrial dehydrogenase activity or from the presence of morphologies characteristic of cell senescence.
Irritation: this is deduced from the effect of increased production of IL-6 and/or IL-1β under standard growth conditions.
Said uses in the fields of medicine and cosmetics or the toxic effects of the substances of the invention at a given dosage, for 24 hours, are summarized in Table 1 below.

[6] = Dose 1 µm (coptisine: 1 pm [sic])

COc1ccc2c(c[n+](C)c3c4cc5c(cc4ccc23)OCO5)c1OC [chelerythrine]
cell proliferation (effect in words) (HDF cells [1]; 1 µM): tendency to stimulate cell proliferation
No. of cells from photo ± SD (HDF cells [1]; 1 µM, 34 ng/ml TGF-β1): 201±15
No. of cells from photo ± SD (HDF cells [1]; 1 µM, 100 µM H2O2): 289±14
No. of cells from photo ± SD (HDF cells [1]; 1 µM, Standard conditions): 229±20
cell proliferation (effect in words) (HDF cells [1]; 10 µM): marked inhibition of proliferation
No. of cells from photo ± SD (HDF cells [1]; 10 µM, 34 ng/ml TGF-β1): 10±4
No. of cells from photo ± SD (HDF cells [1]; 10 µM, 100 µM H2O2): 10±5
No. of cells from photo ± SD (HDF cells [1]; 10 µM, Standard conditions): 3±3
IL-1β production (effect in words) (interleukin 1β (IL-1β); 1 µM, 34 ng/ml TGF-β1): antagonizes the production of IL-1β
IL-1β ng/(ml* No. of cells from photo) ± SD (interleukin 1β (IL-1β); 1 µM, 34 ng/ml TGF-β1): 98±10 ng/(ml* No. of cells from photo)
IL-1β production (effect in words) (interleukin 1β (IL-1β); 1 µM, 100 µM H2O2): antagonizes the production of IL-1β
IL-1β ng/(ml* No. of cells from photo) ± SD (interleukin 1β (IL-1β); 1 µM, 100 µM H2O2): 69±20 ng/(ml* No. of cells from photo)
IL-1β ng/(ml* No. of cells from photo) ± SD (interleukin 1β (IL-1β); 1 µM, Standard conditions): 96±101 ng/(ml* No. of cells from photo)
IL-1β production (effect in words) (interleukin 1β (IL-1β); 1 µM, standard conditions): inhibits the production of IL-1β
IL-1β production (effect in words) (interleukin 1β (IL-1β); 10 µM, 34 ng/ml TGF-β1): stimulates IL-1β production
IL-1β ng/(ml* No. of cells from photo) ± SD (interleukin 1β (IL-1β); 10 µM, 34 ng/ml TGF-β1): 1632±93 ng/(ml* No. of cells from photo)
IL-1β production (effect in words) (interleukin 1β (IL-1β); 10 µM, 100 µM H2O2): stimulates IL-1β production
IL-1β ng/(ml* No. of cells from photo) ± SD (interleukin 1β (IL-1β); 10 µM, 100 µM H2O2): 1735±469 ng/(ml* No. of cells from photo)
IL-1β ng/(ml* No. of cells from photo) ± SD (interleukin 1β (IL-1β); 10 µM, Standard conditions): 144±4 ng/(ml* No. of cells from photo)
IL-1β production (effect in words) (interleukin 1β (IL-1β); 10 µM, standard conditions): stimulates IL-1β production
IL-6 production (effect in words) (interleukin 6 (IL-6); 1 µM, 34 ng/ml TGF-β1): antagonizes the production of IL-6
IL-6 ng/(ml* No. of cells from photo) ± SD (interleukin 6 (IL-6); 1 µM, 34 ng/ml TGF-β1): 510±43 ng/(ml* No. of cells from photo)
IL-6 production (effect in words) (interleukin 6 (IL-6); 1 µM, 100 µM H2O2): antagonizes the production of IL-6
IL-6 ng/(ml* No. of cells from photo) ± SD (interleukin 6 (IL-6); 1 µM, 100 µM H2O2): 626±8 ng/(ml* No. of cells from photo)
IL-6 ng/(ml* No. of cells from photo) ± SD (interleukin 6 (IL-6); 1 µM, Standard conditions): 396±14 ng/(ml* No. of cells from photo)
IL-6 production (effect in words) (interleukin 6 (IL-6); 1 µM, standard conditions): inhibits the production of IL-6
IL-6 production (effect in words) (interleukin 6 (IL-6); 10 µM, 34 ng/ml TGF-β1): stimulates IL-6 production
IL-6 ng/(ml* No. of cells from photo) ± SD (interleukin 6 (IL-6); 10 µM, 34 ng/ml TGF-β1): 4652±243 ng/(ml* No. of cells from photo)
IL-6 production (effect in words) (interleukin 6 (IL-6); 10 µM, 100 µM H2O2): stimulates IL-6 production
IL-6 ng/(ml* No. of cells from photo) ± SD (interleukin 6 (IL-6); 10 µM, 100 µM H2O2): 5844±328 ng/(ml* No. of cells from photo)
IL-6 ng/(ml* No. of cells from photo) ± SD (interleukin 6 (IL-6); 10 µM, Standard conditions): 572±14 ng/(ml* No. of cells from photo)
IL-6 production (effect in words) (interleukin 6 (IL-6); 10 µM, standard conditions): stimulates IL-6 production
concentrations above which the predominant effect is inhibition of mitochondrial dehydrogenase activity [2]: higher than 1 nM
mitochondrial dehydrogenase activity (effect in words) ([2]; 1 µM, 18 h): stimulation of mitochondrial dehydrogenase activity
Revitalizing agent [2, 6]: Yes
Revitalizing agent ([2]; Dose 10 µm): No
activity at 1 µM ([2]; 18 h): 107 ± 10.5%
activity at 10 µM ([2]; 18 h): 0.87 ± 0.74%
activity at 1 µM ([2]; 42 h): 63.9 ± 4.3%
activity at 10 µM ([2]; 42 h): 0.63 ± 8.46%
inhibitory power toward the mitochondrial dehydrogenase activity ([2]; skin fibroblast cells and/or keratinocytes): marked inhibitory power
% DPPH activity ([3]; 1 mM, 30 minutes): 115%
Anti-radical (skin protective) [3, 6]: No
Anti-radical (skin protective) ([3]; Dose 10 µm): No
collagen production (effect in words) ([4]; 1 µM, 34 ng/ml TGF-β1): antagonizes the stimulation of collagen induced by 34 ng/ml TGF-β1
collagen production (effect in words) ([4]; 1 µM, 100 µM H2O2): tendency to stimulate collagen production
collagen production (effect in words) ([4]; 1 µM, standard conditions): tendency to inhibit collagen production
collagen production (effect in words) ([4]; 10 µM, 34 ng/ml TGF-β1): stimulates collagen production
collagen production (effect in words) ([4]; 10 µM, 100 µM H2O2): stimulates collagen production
collagen production (effect in words) ([4]; 10 µM, standard conditions): stimulates collagen production
Anti-fibrotic (prevention of scar formation, also from acne) (HDF cells [5]; [6]): Yes (↓collagen, ↓IL-6, ↓IL-1β)
Cytoprotective (antioxidant, anti-inflammatory and anti-ageing; useful also in the treatment of acne) (HDF cells [5]; [6]): Yes (↓IL-6, ↓IL-1β)
Cytotoxic (HDF cells [5]; [6]): No
Irritant (HDF cells [5]; [6]): No
Wound-healing (HDF cells [5]; [6]): Yes (↑prolif, ↓IL-1β)
Anti-fibrotic (prevention of scar formation, also from acne) (HDF cells [5]; Dose 10 µm): No
Cytoprotective (antioxidant, anti-inflammatory and anti-ageing; useful also in the treatment of acne) (HDF cells [5]; Dose 10 µm): No
Cytotoxic (HDF cells [5]; Dose 10 µm): Yes (cell death, ↓dehydrogenase)
Irritant (HDF cells [5]; Dose 10 µm): Yes (↑IL-6, ↑IL-1β)
Wound-healing (HDF cells [5]; Dose 10 µm): No
concentrations at which no toxic (cytotoxic and irritant) effects are shown (HDF cells [5]; exposure for 24 hours): less than or equal to 1 µM
